In PMC10082216 (Nature Communications, 2023):
pIC50: −log10 of the molar value. Counter-ions that a name gives are not always drawn. Like-named read-outs stand apart in the source and are kept apart here.

Columns and labels:
[1] = system: mature stage V gametocytes (NF54 strain); test: microbe, parasite or virus in culture; type: cell-based, Plasmodium falciparum; settings: read-out: Stiffening IC50 (retention)
Protocol: (§1) Screening was conducted as previously described. Briefly, mature stage V gametocytes (NF54 strain) were cultured in vitro, then exposed to the explored compounds and filtered thereafter through layers of microspheres (microsphiltration)[25],[28]. Stiffening activity was determined by comparing gametocytemia up and downstream from the microsphere layers after filtration of drug-exposed gametocytes in 384-well plates using a vacuum manifold. Gametocytemia was assessed using DNA (Sybr Green) and erythrocyte membrane (CellMask) staining. Killing effect was assessed by MitoTracker staining. We screened two small libraries, specifically the Pathogen Box from the Medicine for Malaria Venture and the Kinase Inhibitors Box from GSK (400 and 350 compounds, respectively, Fig. 1A, B), and furthermore the larger ReFrame repurposing library (12,805 compounds, Fig. 1C).
(§2) The Pathogen Box library (400 compounds, provided by MMV-Medicine for Malaria Ventures, Geneva, Switzerland), the Kinase Inhibitors Box library (350 compounds, provided by GSK-Glaxo SmithKline DDW Unit, Tres Cantos, Spain), and the ReFrame library (12,805 compounds provided by the California Institute for Biomedical Research-Calibr, La Jolla, CA, USA) were used according to the providers’ instructions. DMSO-solubilized compounds (10 mM stock concentration) were loaded in 384-well plates (Seahorse, cat. no. 201035−100). Two columns were left empty for the controls. For each compound, 5 nL were pre-spotted in a single well to reach a final concentration of 1.11 μM. The final volume for each well was 45 μl. Controls were prepared as follows: 22.5 nL of DMSO were loaded in 16 wells as negative controls (0.05% final concentration); 22.5 nL of NITD609 (provided by MMV, Geneva, Switzerland) 1 mM were loaded in 8 wells (0.5 μM final concentration), 17 nL of Calyculin A (Sigma, cat. no. C5552) […] were loaded in 6 wells (75 nM final concentration) and 225 nL of Gentian Violet (MolPort, cat. no. 002-133-551) 10 mM were loaded in the remaining 2 wells (50 μM final concentration). Plates were prepared in triplicate for the Pathogen Box and sextuplicate for the Kinase Inhibitors Box.
(§3) Plasmodium falciparum NF54 strain parasites (used for screening campaign) were cultured at 4% hematocrit in RBCs from informed blood donors (blood group A) as previously described. Parasites were taken from the -80 °C freezer, then rapidly melt for 1 minute in a 37 °C water bath. A saline solution was gently added to avoid the lysis. Firstly, NaCl dissolved at 12% in distilled water (1/5 of the volume measured in the cryovial) and then NaCl dissolved at 1.6% (9 times the cryovial’s volume). After that, fresh RBCs were added to allow parasites re-growth. Infected RBCs were kept in RPMI medium (Sigma-Aldrich, cat. no. R4130), supplemented with 10% of decomplemented human serum, hypoxanthine 50 mg/l (Sigma-Aldrich, cat. no. H9636). Biobank of Castilla y Leon and Centro de Transfusiones de Madrid as providers of human red blood cell concentrates. The production of gametocytes was induced from a 0.5% ring-stage parasitemia (day 0). Medium was changed daily to induce gametocytes differentiation, as previously described. At day 17, gametocytes were concentrated using a density gradient medium (NycoPrep 1.077, Progen cat. no. 1114550)[27]. Parasitemia was adjusted by FACS (SYBR-Green and MitoTracker double staining, 3–5% targeted). Hematocrit was adjusted to 0.5% by adding fresh RBCs and controlled by manual counting in a Neubauer chamber (Celeromics, cat. no. 717810). Finally, the gametocyte suspension was poured (45 μL/well) into the compound-containing 384-well microplate, then incubated 24 hours both for the screening campaign and the dose-response analysis. Both asexual and sexual stages were cultivated in RPMI 1640 supplemented with 25 mM HEPES, 50 mg/L hypoxanthine, 50 μg/mL gentami-cin, 10% pooled heat-inactivated human serum (A^+).

[2] = system: mature stage V gametocytes (NF54 strain); test: High-throughput screening: killing effect by MitoTracker staining, primary screening at 1.11 µM and dose-response analysis; type: cell-based, Plasmodium falciparum; settings: for pIC50: stage V gametocytes NF54, 24 h, dose-response analysis, N/A = not active in dose-response analysis, read-out: Killing IC50
Protocol: as §1, §2, §3

[3] = system: HEK293T; settings: cited from earlier work
[4] = system: HepG2; settings: cited from earlier work
[5] = Hit scoring on safety in human subjects and pharmacokinetics; settings: for Score (PK): peak plasma concentration vs IC50
Source text: Hits from the ReFrame library were further selected based on safety, preferably oral administration (high score if oral), and potential availability for widespread use.

[6] = stage V gametocytes NF54, 24 h, dose-response analysis, N/A = not active in dose-response analysis
[7] = read-out: Cellular cytotoxicity assay IC50, HEK293T, 72 h, first value of cell, ref previously published reports (Table S1 legend)
[8] = read-out: Cellular cytotoxicity assay IC50, HepG2, 72 h, second value of cell, ref previously published reports (Table S1 legend)
[9] = Plasmodium falciparum, NF54, 24 h

Row | Compound | pIC50 [1, 6] | pIC50 [2] | Score (safety) [5] | Score (PK) [5] | pIC50 [1, 9] | further results
1 | CC(=O)[O][Hg][c]1cc(C(C)(C)CC(C)(C)C)ccc1O [Acetomeroctol] | 5.30 | 5.14 | – | – | – | pIC50 [3, 7]: 6.34; pIC50 [4, 8]: 5.72
2 | CCCC1(CCC)CCC2(CCN(CCCN(CC)CC)C2)CC1.O=C(O)/C=C\C(=O)O.O=C(O)/C=C\C(=O)O [Atiprimod dimaleate] | – | 5.18 | 0 | 0 | – | –
3 | CC(=O)OC[C@H]1O[C@@H]([S-])[C@H](OC(C)=O)[C@@H](OC(C)=O)[C@@H]1OC(C)=O.CCP(CC)CC.[Au+] [Auranofin] | 5.46 | 5.59 | 0 | 0 | – | –
4 | COc1ccc(NC(=O)N2CCCCN3[C@H](CN(C)C)[C@H](c4ccc(C#Cc5ccccc5)cc4)[C@@H]3C2)cc1 [BRD-7929] | 5.42 | 5.66 | 0 | 0 | – | –
5 | Cc1cc(Nc2ncc(Cl)c(Nc3ccccc3S(=O)(=O)C(C)C)n2)c(OC(C)C)cc1C1CCNCC1 [Ceritinib] | – | – | 0 | 0 | 4.98 | pIC50 [2, 9]: 5.00
6 | CC(C)NC(=N)NC(=N)Nc1ccc(Cl)c(Cl)c1.Cl [Chlorproguanil hydrochloride] | 4.99 | – | 0 | 1 (Peak plasma concentration lower than 1/3 IC50 (Score = 1)) | – | –
7 | COc1cccc2c1C(=O)c1c(O)c3c(c(O)c1C2=O)C[C@@](O)(C(C)=O)C[C@@H]3O[C@H]1C[C@H](N)[C@H](O)[C@H](C)O1 [Daunorubicin] | – | – | – | – | 4.92 | pIC50 [3]: 7.41; pIC50 [4]: 6.90
8 | C[C@H]1O[C@@H](O[C@H]2[C@@H](O)C[C@H](O[C@H]3[C@@H](O)C[C@H](O[C@H]4CC[C@@]5(C)[C@H](CC[C@@H]6[C@@H]5CC[C@]5(C)[C@@H](C7=CC(=O)OC7)CC[C@]65O)C4)O[C@@H]3C)O[C@@H]2C)C[C@H](O)[C@@H]1O [Digitoxin] | – | – | – | 0 | 4.97 | Score (safety) ([5]; human): 3; pIC50 [3, 7]: 8.10; pIC50 [4, 8]: 7.96
9 | CN(C)c1ccc2c(c1)Sc1cc(N(C)C)ccc1N2 [Leuco methylthioninium salt] | – | 4.63 | 0 | 0 | – | –
10 | COC1=C(OC)C(=O)C(CCCCCCCCCC[P+](c2ccccc2)(c2ccccc2)c2ccccc2)=C(C)C1=O [Mitoquinone mesylate] | – | – | – | 1 (Peak plasma concentration lower than 1/3 IC50 (Score = 1)) | 4.92 | pIC50 [2, 9]: 4.93; Score (safety) ([5]; human): 3
11 | CC(C)(C)NCc1ccc(Nc2ccnc3cc(Cl)ccc23)cc1O [N-tert-butylisoquine] | – | – | 0 | 0 | 5.02 | pIC50 [2, 9]: 5.02
12 | COc1ccc(-c2ccc3ncc4c(c3c2)n(-c2ccc(N3CCNCC3)c(C(F)(F)F)c2)c(=O)n4C)cn1 [NVP-BGT226] | – | – | 0 | 2 (Peak plasma concentration between 1/3 IC50 and IC50 (Score = 2)) | 5.80 | pIC50 [2, 9]: 7.89
13 | CC(O)C(=O)O.Cc1[nH]c2ccccc2c1CCNCc1ccc(/C=C/C(=O)NO)cc1 [Panobinostat lactate] | 6.66 | 6.52 | 0 | 0 | – | –
14 | Cn1cc(CNCC2CCN(c3ncc(C(=O)NO)cn3)CC2)c2ccccc21 [Quisinostat] | – | – | 0 | 0 | 5.46 | pIC50 [2, 9]: 5.28
15 | CC[n+]1c(/C=C/c2ccc(N3CCCC3)cc2)cccc1/C=C/c1ccc(N2CCCC2)cc1.[I-] [Stilbazium iodide] | 5.80 | 5.06 | 0 | 0 | – | –
16 | Gramicidin | 7.15 | 8.10 | – | – | – | killing IC50 in words ([2]; gametocytes): low nanomolar range
17 | Tyrothricin | – | – | – | – | – | pIC50 [3]: 5.74; pIC50 [4]: 5.72
